From article PMC6270759, “Constituents of the Roots and Leaves of Ekebergia capensis and Their Potential Antiplasmodial and Cytotoxic Activities” (Molecules, 2014)
Where two headings read alike, the source gives them in different places. Marks after values point to notes of the source that are not given here.

How the values were obtained:
[1] = test system: chloroquine-sensitive D6 strain of P. falciparum; test: In vitro antiplasmodial assay, (G-3H) hypoxanthine incorporation, D6 strain; format: cell-based; details: Plasmodium falciparum
Method: (§1) Continuous in vitro cultures of asexual erythrocytic stages of Indochinese chloroquine-resistant W2 and Sierra Leonean chloroquine-sensitive D6 strains of P. falciparum were maintained following the modified procedure described by Trager and Jensen. Drug assay was carried out following a modification of the semiautomated microdilution technique, which measures the ability of the extracts to inhibit the incorporation of (G-^3H) hypoxanthine into the malaria parasite. […] Data was transferred into the software Microsoft Excel and was expressed as the percentage of the untreated controls. The drug concentration required for 50% inhibition of (G-^3H) hypoxanthine incorporation into parasite nucleic acid was calculated with nonlinear regression analysis of the dose-response curve.

[2] = test system: African monkey kidney (vero) cells; test: MTT cytotoxicity assay, vero cells; format: cell-based; details: Primates, 48 h, read-out: IC50 Vero
Text: (§2) This assay is based on the ability of a mitochondrial dehydrogenase enzyme from viable cells to cleave the tetrazolium rings of the pale yellow MTT and thereby form dark blue formazan crystals, which are largely impermeable to cell membranes, resulting in their accumulation within healthy cells. The amount of generated formazan is directly proportional to the number of cells. […] Cells were maintained in Eagle’s Minimum Essential Medium (MEM) containing 10% fetal bovine serum (FBS). A cell density of 20.000 cells per well in 100 μL were seeded on 96-well plates and incubated for 12 h at 37 °C and 5% CO2 to attach to the surface. […] The plates were incubated for 48 h at 37 °C and 5% CO2, followed by an addition of 10 µL MTT viability indicator reagent. The plates were incubated for additional 4 h at the same conditions. Next, all media was removed from the plates and 100 µL DMSO was added to dissolve the formazan crystals. The plates were read on a Multiskan EX Labsystems scanning multi-well spectrophotometer at 562 nm, and 620 nm as reference. The results were recorded as optical density (OD) per well at each drug concentration. The data was transferred into the software Microsoft Excel and expressed as percentage of the untreated controls.

[3] = test system: human larynx carcinoma (HEp2) cells; test: MTT cytotoxicity assay, HEp2 cells; format: cell-based; details: HEp-2, pure compounds, 48 h
Method: (§3) A rapid colorimetric assay was carried out using 3-(4,5-dimethylthiazol-2-yl)-2,5-diphenyltetrazolium bromide (MTT). This assay is based on the ability of a mitochondrial dehydrogenase enzyme from viable cells to cleave the tetrazolium rings of the pale yellow MTT and thereby form dark blue formazan crystals, which are largely impermeable to cell membranes, resulting in their accumulation within healthy cells. The amount of generated formazan is directly proportional to the number of cells. In this assay, the mammalian cell lines African monkey kidney (vero), mouse breast cancer (4T1) and human larynx carcinoma (HEp2) were used. Cells were maintained in Eagle’s Minimum Essential Medium (MEM) containing 10% fetal bovine serum (FBS). A cell density of 20.000 cells per well in 100 μL were seeded on 96-well plates and incubated for 12 h at 37 °C and 5% CO2 to attach to the surface. Samples of the tested extracts and isolated compounds were added to the cultured cells in rows H-B over a concentration range of 0.14 to 100 μg/mL, whereas wells 1–8 of row A served as untreated controls and wells 9–12 as blank (1% DMSO, v/v). The plates were incubated for 48 h at 37 °C and 5% CO2, followed by an addition of 10 µL MTT viability indicator reagent. The plates were incubated for additional 4 h at the same conditions. Next, all media was removed from the plates and 100 µL DMSO was added to dissolve the formazan crystals. The plates were read on a Multiskan EX Labsystems scanning multi-well spectrophotometer at 562 nm, and 620 nm as reference. The results were recorded as optical density (OD) per well at each drug concentration. The data was transferred into the software Microsoft Excel and expressed as percentage of the untreated controls. Percentage cytotoxicity (PC) as compared to the untreated controls was calculated as PC = [A − B/A] × 100, where A is the mean OD of the untreated cells and B is the mean OD at each drug concentration. The drug concentration required for 50% inhibition of cell growth was estimated using nonlinear regression analysis of the dose- response curve.

[4] = test system: chloroquine-resistant W2 strain of P. falciparum; test: In vitro antiplasmodial assay, (G-3H) hypoxanthine incorporation, W2 strain; format: cell-based; details: Plasmodium falciparum, pure compounds
Method: as §1

vero cells = test: Interaction of oleanonic acid (2) with other triterpenoids, fixed ratios, vero cell cytotoxicity; format: cell-based, African monkey; details: for IC50: Primates, ratio 0:1, in the absence of 2 (for 2: alone), read-out: IC50 (μg/mL), substance alone; for ∑FIC 1:1: ratio of oleanonic acid (2) versus constituent 1:1; for ∑FIC 1:3: ratio of oleanonic acid (2) versus constituent 1:3; for ∑FIC 3:1: ratio of oleanonic acid (2) versus constituent 3:1
Text: as §3, with “This” for “A rapid colorimetric assay was carried out using 3-(4,5-dimethylthiazol-2-yl)-2,5-diphenyltetrazolium bromide (MTT). This”, “In this assay, the mammalian cell lines African monkey kidney (vero), mouse breast cancer (4T1) and human larynx carcinoma (HEp2) were used.” left out, “Samples of the tested extracts and isolated compounds were added to the cultured cells in rows H-B over a concentration range of 0.14 to 100 μg/mL, whereas wells 1–8 of row A served as untreated controls and wells 9–12 as blank (1% DMSO, v/v).” left out, “curve. The interaction of oleanonic acid (2) with other triterpenoids was studied using the fixed concentration ratios oleanonic acid: ‘other triterpenoid’ 0:1, 1:3, 1:1, 3:1, 1:0. The vero cell cytotoxicity assay was used, as described above, to evaluate the toxicity of the mixtures. To determine whether there was synergy, additive effect or antagonism, the sum of fractional inhibition concentration (∑FIC) was calculated using the formula Ax/Ay + Bx/By = K, where Ax and Bx are the IC50s when the substances are used in combination, and Ay and By are the IC50s, when the substances are used alone. The data was scored with the scale ∑FIC < 1: synergism, 2 > ∑FIC ≥ 1: additive, 4 > ∑FIC ≥ 2: slight antagonism, ∑FIC ≥ 4: marked antagonism.” for “curve.”

[5] = test system: MDA-MB-231 human breast cancer cells; test: Alamar Blue cytotoxicity assay, MDA-MB-231 cells; format: cell-based; details: pure compounds, 72 h
Method: Cytotoxicity tests on MDA-MB-231 cells were carried out following a previously described procedure. MDA-MB-231 human breast cancer cells were cultured in Dulbecco’s modified eagle medium (DMEM) supplemented with 10% (v/v) fetal bovine serum, 2 mM L-glutamine, 100 units/mL penicillin and 100 μg/mL streptomycin at 37 °C in humidified 5% CO2. For cytotoxicity assays, cells were seeded in 96-well plates at optimal cell density (10,000 cells per well) to ensure exponential growth for the duration of the assay. After a 24 h preincubation growth, the medium was replaced with experimental medium containing the appropriate drug concentrations or vehicle controls (0.1% or 1.0% v/v DMSO). After 72 h of incubation, cell viability was measured using Alamar Blue reagent (Invitrogen Ab, Lidingö, Sweden) according to the manufacturer’s instructions. Absorbance was measured at 570 nm with 600 nm as a reference wavelength. Results were expressed as the mean ± standard error for six replicates as a percentage of vehicle control (taken as 100%). Experiments were performed independently at least six times. Statistical analyses were performed using a two-tailed Student’s t-test. p < 0.05 was considered to be statistically significant.

[6] = test system: mouse breast cancer (4T1) cells; test: MTT cytotoxicity assay, 4T1 cells; format: cell-based; details: 4T1, 48 h, pure compounds
Text: as §2

[7] = test system: 3D7 strain of P. falciparum; parameters: method as in PMID 14598212; details: cited from earlier work
[8] = pure compounds, P. falciparum D6, mean of at least three independent experiments, read-out: IC50 D6

SMILES | IC50 ([1]; D6, read-out: IC50(D6)) | IC50 ([2]; Vero) | IC50 [3] | IC50 [4] | IC50 [1, 8] | IC50 (vero cells) | IC50 ([2]; vero cells, MTT) | IC50 [5] | Interaction with the cytotoxic effect of oleanonic acid (2), in words (vero cells) | ∑FIC 1:1 (vero cells) | ∑FIC 1:3 (vero cells) | ∑FIC 3:1 (vero cells) | IC50 [6] | in vitro antiplasmodial activity against 3D7, in words [7]
CCN(CC)CCCC(C)Nc1ccnc2cc(Cl)ccc12 (centres unmarked) [Chloroquine, reference compound] | 0.0077 µM | 43.9 µM |  |  |  |  |  |  |  |  |  |  |  | 
CC1(C)CC[C@]2(C(=O)O)CC[C@]3(C)C(=CC[C@@H]4[C@@]5(C)CCC(=O)C(C)(C)[C@@H]5CC[C@]43C)[C@@H]2C1 [Compound 2, oleanonic acid] |  |  | 1.4 ± 0.1 µM | 76.7 ± 4 µM | 38.8 ± 0.5 µM | 14.8 µg/mL | 35.8 ± 1.3 µM | > 212 µM |  |  |  |  |  | 
CC1(C)CC[C@]2(C(=O)O)CC[C@]3(C)C(=CC[C@@H]4[C@@]5(C)CC[C@@H](O)C(C)(C)[C@@H]5CC[C@]43C)C2C1 (stereo partly drawn) [Compound 3, 3-epi-oleanolic acid] |  |  | 29.8 ± 0.3 µM | 179 ± 6 µM | 205 ± 3 µM | 22.5 µg/mL | 58 ± 5.2 µM | 36.54 ± 0.02 µM | markedly antagonized | 5.2 ^c | 9.8 ^c | 5.8 ^c | 30.3 ± 2.6 µM | 
CC1(C)CC[C@]2(C(=O)O)CC[C@]3(C)C(=CC[C@@H]4[C@@]5(C)CC[C@H](O)C(C)(C)[C@@H]5CC[C@]43C)[C@@H]2C1 [Compound 4, oleanolic acid] |  |  | 134.9 ± 0.7 µM | 82.7 ± 2 µM | 49.6 ± 2.3 µM | 40.3 µg/mL | 112 ± 5.1 µM | 39.82 ± 0.03 µM | slight antagonistic effect | 4.7 ^c | 3.3 ^c | 3.6 ^c | 118 ± 2.6 µM | moderate
CC(C)C12CCC3(CCC4(C)C(CCC5C6(C)CCC(=O)C(C)(C)C6CCC54C)C3O1)CO2 (centres unmarked) [Compound 5, ekeberin A] |  |  | > 219 µM | > 219 µM | 182 ± 6 µM | > 100 µg/mL | > 219 µM |  | antagonized by high concentrations of ekeberin A (5), but at lower relative concentrations 5 enhanced the toxicity of 2 | <1.4 ^c | <4 ^c | <1.3 ^c | 163 ± 4.3 µM | 
CC(=CCCC=C(C)CCC=C(C)CCC(O)C(C)(O)CO)CCC=C(C)CCC(O)C(C)(C)O (centres unmarked) [Compound 6, 2-hydroxymethyl-2,3,22,23-tetrahydroxy-6,10,15,19,23-pentamethyl-6,10,14,18-tetracosatetraene] |  |  | 38.4 ± 0.8 µM | 66.9 ± 0.6 µM | 27.1 ± 0.4 µM | 13.6 µg/mL | 35.7 ± 2.1 µM | 36.69 ± 0.04 µM | weak antagonistic effects | 2.2 ^c | 2.2 ^c | 2.3 ^c | 30.2 ± 1.3 µM | 
CC(=CCCC=C(C)CCC=C(C)CCC(O)C(C)(C)O)CCC=C(C)CCC(O)C(C)(C)O (centres unmarked) [Compound 7, 2,3,22,23-tetrahydroxy-2,6,10,15,19,23-hexamethyl-6,10,14,18-tetracosatetraene] |  |  | 35.5 ± 3.1 µM | 64.3 ± 1 µM | 56.1 ± 0.4 µM | 11 µg/mL | 24.7 ± 1.8 µM | > 209 µM | weak antagonistic effects | 1.9 ^c | 2 ^c | 2.2 ^c | 22.5 ± 3.2 µM | 
COC(=O)C[C@H]1C(C)(C)[C@H](O)[C@@H]2CC3=C4CC(=O)O[C@@H](c5ccoc5)[C@]4(C)CC[C@@H]3[C@@]1(C)C2=O [Compound 8, proceranolide] |  |  | > 213 µM | 150 ± 3 µM | 84.7 ± 0.8 µM |  | > 213 µM |  |  |  |  |  | > 213 µM | 
O=c1c(O[C@@H]2O[C@H](CO)[C@@H](O)[C@H](O)[C@H]2O)c(-c2ccc(O)cc2)oc2cc(O)cc(O)c12 [Compound 9, kaempferol-3-O-β-D-glucopyranoside] |  |  | > 223 µM | 105.8 ± 0.5 µM | 97.1 ± 1 µM |  | > 223 µM | > 223 µM |  |  |  |  | > 223 µM | 
O=c1c(O[C@@H]2O[C@H](CO)[C@@H](O)[C@H](O)[C@H]2O)c(-c2ccc(O)c(O)c2)oc2cc(O)cc(O)c12 [Compound 10, quercetin-3-O-β-D-glucopyranoside] |  |  | > 216 µM | 105.8 ± 1 µM | 42.9 ± 0.3 µM |  | > 216 µM | > 216 µM |  |  |  |  | > 216 µM | 
